Test results taken from US20190345250A1, “ANTIBODY DRUG CONJUGATES” (NOVARTIS AG, priority 2013, published 2019).

What was measured:
[1] = system: CHGA119 patient-derived primary gastric tumor xenograft model; assay: Antitumor activity and body weight in CHGA119 patient-derived xenograft
Description: In these studies, CHGA119 tumor fragments in size of 2mm ×2mm×2mm were implanted subcutaneously (s.c.) into female nu/nu athymic mice. […] Tumors were calipered twice a week.

complement factor Clq = target: T1, complement factor Clq (Homo sapiens, UniProt P02745+P02746+P02747); assay: Clq binding ELISA; details: antibody coated 25 to 0.02 μg/ml
T1 construct: purchased Sigma C1740-1mg
T1 sequence (P02745 23-245): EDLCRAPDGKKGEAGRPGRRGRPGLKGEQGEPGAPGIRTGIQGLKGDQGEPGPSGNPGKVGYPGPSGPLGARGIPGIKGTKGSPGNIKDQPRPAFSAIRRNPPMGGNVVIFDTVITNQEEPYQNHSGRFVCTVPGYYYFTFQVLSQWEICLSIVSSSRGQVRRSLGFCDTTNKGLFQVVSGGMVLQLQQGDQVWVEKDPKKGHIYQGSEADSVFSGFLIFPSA
T1 sequence (P02746 28-253): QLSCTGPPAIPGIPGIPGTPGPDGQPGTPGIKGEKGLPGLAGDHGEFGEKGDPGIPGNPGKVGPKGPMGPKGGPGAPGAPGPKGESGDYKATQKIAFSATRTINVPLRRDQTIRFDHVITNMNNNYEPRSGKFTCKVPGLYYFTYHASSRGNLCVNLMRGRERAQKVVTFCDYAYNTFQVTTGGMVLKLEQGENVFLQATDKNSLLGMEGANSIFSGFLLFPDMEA
T1 sequence (P02747 29-245): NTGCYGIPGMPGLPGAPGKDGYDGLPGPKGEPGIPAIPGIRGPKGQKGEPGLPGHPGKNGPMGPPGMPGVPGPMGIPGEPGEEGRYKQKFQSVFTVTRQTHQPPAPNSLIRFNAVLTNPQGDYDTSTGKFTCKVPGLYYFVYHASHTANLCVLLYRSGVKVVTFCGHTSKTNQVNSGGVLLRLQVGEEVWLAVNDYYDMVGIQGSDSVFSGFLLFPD
Description: In additional studies, the ability of the unconjugated anti-FGFR2 antibodies to bind the complement factor Clq was evaluated. The binding of the complement factor Clq is the initial step leading to complement dependent cytotoxicity (CDC) and cell lysis in vivo. In these studies the surface of the wells of 96-well microtiterplates (Nunc, Maxisorp, catalog # 439454) were coated with serial dilutions of the antibodies 12433, 12425, N297A_12425 and 10164 over night at 4° C. in the dark (all in a concentration range from 25 to 0.02 μg/ml). The commercially available antibody, Rituximab served as a positive control. In order to monitor the amount of bound antibody analyte on the microtiterplate, this procedure was performed twice per plate utilizing the second dilution (in triplicate) for determining the coating efficacy of the analyte to the plate. Clq binding was quantified by adding a constant concentration of Clq (Sigma; Complement component Clq catalog # C1740-1mg) and detected using a polyclonal goat-anti-human Clq antibody conjugated to Horse Radish Peroxidase HRP (AbD Serotec; Sheep Anti-Human Clq:HRP; Catalogue number 2221-5004P). The control of the coating efficiency was determined in the second dilution series with a peroxidase-conjugated goat-anti-human IgG antibody fragment (Jackson ImmunoResearch; catalog # 109-036-003; AffiniPure F(ab′2) fragment Goat Anti-Human IgG (H+L)). […]

[2] = CHGA119-tumor bearing mice, ADCs 10 mg/kg i.v. q2wk, BGJ398 10 mg/kg p.o. qd

| Compound | Host response: % body weight change (mean ± SEM) [1, 2] [%] | Host response: Mean body weight change (g ± SEM) [1, 2] [g] | Host response: Survival (survivors/total) [1, 2] | T/C ([1]; single agent, 10 mg/kg, after 5 weeks of treatment) [%] | Clq binding potency (EC50) (complement factor Clq) |
| --- | --- | --- | --- | --- | --- |
| CCN1CCN(c2ccc(Nc3cc(N(C)C(=O)Nc4c(Cl)c(OC)cc(OC)c4Cl)ncn3)cc2)CC1 [BGJ398, 3-(2,6-Dichloro, 3,5-dimethoxy-phenyl)-1-{6-[4-(4-ethyl-piperazin-1-yl)-phenylamino]-pyrimidin-4-yl}-1-methyl-urea] | −3.7 ± 3 | -0.8 ± 0.7 | 8/8 | 33 | – |
| Rituximab: commercially available antibody, positive control for Clq binding | – | – | – | – | about the same |
